In ChEMBL document CHEMBL1139424, “Design, synthesis, and acetylcholinesterase inhibitory activity of novel coumarin analogues” (Bioorg Med Chem, 2008):

Target: Acetylcholinesterase (Electrophorus electricus, UniProt O42275)
Test: Inhibition of Electrophorus electricus brain AChE by Ellman's method

Sequence of Acetylcholinesterase (O42275 whole entry): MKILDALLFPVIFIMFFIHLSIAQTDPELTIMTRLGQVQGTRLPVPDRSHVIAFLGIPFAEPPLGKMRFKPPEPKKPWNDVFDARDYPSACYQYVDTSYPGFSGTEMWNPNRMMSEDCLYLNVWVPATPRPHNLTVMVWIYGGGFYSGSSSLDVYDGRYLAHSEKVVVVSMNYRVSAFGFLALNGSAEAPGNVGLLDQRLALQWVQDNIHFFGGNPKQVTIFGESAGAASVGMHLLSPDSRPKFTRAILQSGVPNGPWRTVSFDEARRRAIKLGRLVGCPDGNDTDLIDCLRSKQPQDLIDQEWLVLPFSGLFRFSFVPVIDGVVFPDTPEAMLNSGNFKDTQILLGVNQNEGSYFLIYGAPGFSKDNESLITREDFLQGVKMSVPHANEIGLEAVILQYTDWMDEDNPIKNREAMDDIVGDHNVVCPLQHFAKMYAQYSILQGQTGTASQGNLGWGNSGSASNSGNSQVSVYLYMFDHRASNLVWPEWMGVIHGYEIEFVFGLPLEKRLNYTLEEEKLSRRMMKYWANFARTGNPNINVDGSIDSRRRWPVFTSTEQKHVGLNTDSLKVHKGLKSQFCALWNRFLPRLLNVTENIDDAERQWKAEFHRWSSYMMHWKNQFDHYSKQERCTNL

Row | SMILES | IC50 [µM]
1 | O=C(c1ccc([N+](=O)[O-])cc1)N1CCN(C(=O)c2cc3ccccc3oc2=O)CC1 | 34
2 | Cc1ccc2oc(=O)cc(N3CCN(c4ccc(Cl)cc4)CC3)c2c1 | 808
3 | Cc1ccc2oc(=O)cc(N3CCN(C(=O)c4ccccc4)CC3)c2c1 | 7.4
4 | O=C(c1cc2ccccc2oc1=O)N1CCOCC1 | 101
5 | Cc1ccccc1N1CCN(C(=O)c2cc3ccccc3oc2=O)CC1 | 6.7
6 | O=C(c1ccccc1)N1CCN(C(=O)c2cc3ccccc3oc2=O)CC1 | 15
7 | O=C(c1cc2ccccc2oc1=O)N1CCN(c2cc(Cl)ccc2Cl)CC1 | 14
8 | Cc1ccc(N2CCN(C(=O)c3cc4ccccc4oc3=O)CC2)cc1 | 7.6
9 | O=C(c1ccc(Cl)cc1)N1CCN(C(=O)c2cc3ccccc3oc2=O)CC1 | 21
10 | COc1ccccc1N1CCN(C(=O)c2cc3ccccc3oc2=O)CC1 | 11
11 | Cc1ccc2oc(=O)cc(N3CCN(C(=O)c4ccccc4Cl)CC3)c2c1 | 21
12 | COc1ccccc1N1CCN(c2cc(=O)oc3ccc(C)cc23)CC1 | 249
13 | Cc1ccc2oc(=O)cc(N3CCN(c4cc(Cl)ccc4Cl)CC3)c2c1 | 827
14 | COc1ccc(N2CCN(C(=O)c3cc4ccccc4oc3=O)CC2)cc1 | 7.5
15 | O=c1cc(Cl)c2cc(CN3CCN(c4ccccc4)CC3)ccc2o1 | 19
16 | Cc1ccc2oc(=O)cc(N3CCN(C(=O)c4ccc(Cl)cc4)CC3)c2c1 | 16
17 | O=C(c1cc2ccccc2oc1=O)N1CCN(c2ccccc2)CC1 | 9.3
18 | Cc1ccc2oc(=O)cc(N3CCN(c4ccccc4)CC3)c2c1 | 4.5
19 | Cc1ccc2oc(=O)cc(N3CCN(C)CC3)c2c1 | 901
20 | Cc1ccc2oc(=O)cc(N3CCN(c4ccccc4C)CC3)c2c1 | 7.9
21 | Cc1ccc2oc(=O)cc(N3CCOCC3)c2c1 | 875
22 | O=C(c1cc2ccccc2oc1=O)N1CCN(c2ccc(Cl)cc2)CC1 | 98
23 | Cc1ccc(N2CCN(c3cc(=O)oc4ccc(C)cc34)CC2)cc1 | 61
24 | COc1ccc(N2CCN(c3cc(=O)oc4ccc(C)cc34)CC2)cc1 | 18
25 | Cc1ccc(C(=O)N2CCN(C(=O)c3cc4ccccc4oc3=O)CC2)cc1 | 18
26 | O=C(c1ccccc1Cl)N1CCN(C(=O)c2cc3ccccc3oc2=O)CC1 | 26
27 | Cc1ccc(C(=O)N2CCN(c3cc(=O)oc4ccc(C)cc34)CC2)cc1 | 5.3
